# Where “and” joins values, the source holds several entries; their conditions need not be identical. Equal entries are not always repeated. Where two headings read alike, the source gives them in different places.
# Key:
# [1] = system: HT-29 human colon cancer cells; test: HT-29 Model; type: in vivo, nude mice
# Method: Mice were injected subcutaneously in the left paw (1×10^6 tumor cells suspended in 30% Matrigel) and tumor volume was evaluated using a phlethysmometer twice a week for 30-60 days. Implantation of human colon cancer cells (HT-29) into nude mice produces tumors that will reach 0.6-2 ml between 30-50 days. […] The data are expressed as the mean+/−SEM. Student's and Mann-Whitney tests were used to assess differences between means using the InStat software package.
# The efficacy of both agents were determined by measuring tumor volume.
# [2] = system: Lewis Lung tumors; test: Lewis Lung Model; type: in vivo, mice
# Method: Mice were injected subcutaneously in the left paw (1×10^6 tumor cells suspended in 30% Matrigel) and tumor volume was evaluated using a phlethysmometer twice a week for 30-60 days. […] The data are expressed as the mean+/−SEM. Student's and Mann-Whitney tests were used to assess differences between means using the InStat software package. […] Analysis of lung metastasis was done in all the animals by counting metastasis in a stereomicroscope and by histochemical analysis of consecutive lung sections.
# [3] = target: T1, HER-2 kinase (EGFr/HER-2 chimera/3T3-C7 cell line) (Homo sapiens, UniProt P04626); test: Cellular HER-2 kinase assay, whole-cell ELISA; type: cell-based; conditions: read-out: Her2 Kinase IC50
# T1 construct: fused on or other part: EGFR extracellular part, stimulated by EGF and captured by the anti-EGFR antibody SUMO1; P00533 (Epidermal growth factor receptor)
# T1 sequence (P04626 720-987 limits assumed, change not shown): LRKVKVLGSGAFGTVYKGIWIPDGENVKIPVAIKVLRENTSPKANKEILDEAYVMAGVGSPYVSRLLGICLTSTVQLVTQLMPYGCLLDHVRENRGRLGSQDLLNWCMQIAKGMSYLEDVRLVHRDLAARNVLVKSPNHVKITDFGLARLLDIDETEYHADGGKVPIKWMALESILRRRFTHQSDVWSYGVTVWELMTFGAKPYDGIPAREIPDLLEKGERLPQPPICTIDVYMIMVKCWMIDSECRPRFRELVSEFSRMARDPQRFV
# Method: This assay is used to measure HER-2 kinase activity in whole cells in an ELISA format.
# Fetal Bovine Serum (FBS, GIBCO Catalog #16000-044), heat inactivated in a water bath for 30 min. at 56° C. • 3. […] PBS. • 9. […] Corning 96-well ELISA Plates. • 12. NUNC 96-well V bottom polypropylene plates. • 13. […] SUMO 1: monoclonal anti-EGFR antibody (SUGEN, Inc.). • 15. TBST Buffer. • 16. Blocking Buffer: 5% Carnation Instant Milk® in PBS. • 17. […] Suspend powder in 100 uL of 10 mM HCl. Add 100 uL 10 mM NaOH. Add 800 uL PBS and transfer to an Eppendorf tube, store at −20° C. until ready to use. • 18. […] EDTA. • 20. Na3VO4. […] Boil in microwave for one minute (solution becomes clear). • Cool to room temperature. Adjust pH to 10. Repeat heating/cooling cycle until pH remains at 10. • 21. 200 mM Na4P2O7. • 22. Rabbit polyclonal antiserum specific for phosphotyrosine (anti-Ptyr antibody, SUGEN, Inc.). • 23. Affinity purified antiserum, goat anti-rabbit IgG antibody, peroxidase conjugate (Biosource Cat #ALI0404). • 24. ABTS Solution. • 25. 30% Hydrogen peroxide solution. • 26. ABTS/H2O2. • 27. 0.2 M HCl. Procedure: • 1. Coat Corning 96 well ELISA plates with SUMO1 at 1.0 ug per well in PBS, 100 ul final volume/well. Store overnight at 4° C. • 2. On day of use, remove coating buffer and wash plate 3 times with dH2O and once with TBST buffer. All washes in this assay should be done in this manner, unless otherwise specified. • 3. Add 100 ul of Blocking Buffer to each well. Incubate plate, with shaking, for 30 min. at room temperature. Just prior to use, wash plate. • 4. Use EGFr/HER-2 chimera/3T3-C7 cell line for this assay. • 5. Choose dishes having 80-90% confluence. Collect cells by trypsinization and centrifuge at 1000 rpm at room temperature for 5 min. • 6. Resuspend cells in starve medium and count with trypan blue. Viability above 90% is required. Seed cells in starve medium at a density of 2,500 cells per well, 90 ul per well, in a 96 well microtiter plate. Incubate seeded cells overnight at 37° under 5% CO2. • 7. Start the assay two days after seeding. • 8. Test compounds are dissolved in 4% DMSO. Samples are then further diluted directly on plates with starve-DMEM. Typically, this dilution will be 1:10 or greater. […] Incubate at 37° C. for 10 min. • 13. Remove test compound, EGF, and DMEM. Wash cells once with PBS. • 14. Transfer HNTG* to cells, 100 ul per well. Place on ice for 5 minutes. • Meanwhile, remove blocking buffer from ELISA plate and wash. • 15. Scrape cells from plate with a micropipettor and homogenize cell material by repeatedly aspirating and dispensing the HNTG* lysis buffer. Transfer lysate to a coated, blocked, washed ELISA plate. Or, use a Costar transfer cartridge to transfer lysate to the plate. • 16. Incubate, with shaking, at room temperature for 1 hr. • 17. Remove lysate, wash. Transfer freshly diluted anti-Ptyr antibody (1:3000 in TBST) to ELISA plate, 100 ul per well. • 18. Incubate, with shaking, at room temperature, for 30 min. • 19. Remove anti-Ptyr antibody, wash. Transfer freshly diluted BIOSOURCE antibody to ELISA plate (1:8000 in TBST, 100 ul per well). • 20. Incubate, with shaking, at room temperature for 30 min. • 21. Remove BIOSOURCE antibody, wash. Transfer freshly prepared ABTS/H2O2 solution to ELISA plate, 100 ul per well. • 22. […] Remove any bubbles. • 23. Stop reaction with the addition of 100 ul of 0.2M HCl per well. • 24.
# [4] = target: T2, EGFR (A431 cell lysate) (Homo sapiens, UniProt P00533); test: EGFR bioassay, ELISA; type: biochemical; conditions: read-out: bio EGF IC50
# T2 construct: A431 cell lysate (SUGEN, Inc.); host or cells: A431
# T2 sequence (P00533 25-1210): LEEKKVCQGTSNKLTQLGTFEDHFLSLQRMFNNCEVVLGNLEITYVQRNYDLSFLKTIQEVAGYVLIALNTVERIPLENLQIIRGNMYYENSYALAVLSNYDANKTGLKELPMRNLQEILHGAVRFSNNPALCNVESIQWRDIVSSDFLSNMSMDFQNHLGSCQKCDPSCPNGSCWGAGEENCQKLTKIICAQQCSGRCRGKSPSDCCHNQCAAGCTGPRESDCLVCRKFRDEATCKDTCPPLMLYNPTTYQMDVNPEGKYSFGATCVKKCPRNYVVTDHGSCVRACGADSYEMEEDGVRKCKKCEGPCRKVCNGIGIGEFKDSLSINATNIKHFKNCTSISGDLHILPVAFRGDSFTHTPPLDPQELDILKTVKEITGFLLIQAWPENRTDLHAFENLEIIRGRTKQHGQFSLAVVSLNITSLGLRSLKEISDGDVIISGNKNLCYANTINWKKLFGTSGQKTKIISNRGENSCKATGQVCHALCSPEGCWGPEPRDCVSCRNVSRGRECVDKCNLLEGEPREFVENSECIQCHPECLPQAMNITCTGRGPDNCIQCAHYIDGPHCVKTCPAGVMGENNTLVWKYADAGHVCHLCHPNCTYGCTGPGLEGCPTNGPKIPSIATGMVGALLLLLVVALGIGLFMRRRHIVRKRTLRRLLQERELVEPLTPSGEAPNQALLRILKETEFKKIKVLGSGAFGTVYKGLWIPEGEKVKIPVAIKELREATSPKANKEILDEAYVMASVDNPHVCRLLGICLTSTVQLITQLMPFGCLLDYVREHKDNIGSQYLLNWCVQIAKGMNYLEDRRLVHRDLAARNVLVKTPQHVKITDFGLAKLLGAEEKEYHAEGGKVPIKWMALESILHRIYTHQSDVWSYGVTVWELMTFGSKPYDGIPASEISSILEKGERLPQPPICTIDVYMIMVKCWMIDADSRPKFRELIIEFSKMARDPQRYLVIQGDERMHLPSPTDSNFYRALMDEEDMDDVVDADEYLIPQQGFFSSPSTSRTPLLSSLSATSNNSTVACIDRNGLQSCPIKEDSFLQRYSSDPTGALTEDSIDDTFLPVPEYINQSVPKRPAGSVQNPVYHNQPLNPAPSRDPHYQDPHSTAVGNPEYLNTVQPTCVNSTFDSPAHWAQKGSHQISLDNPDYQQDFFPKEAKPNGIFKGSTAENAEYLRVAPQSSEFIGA
# Method: This assay is used to the in vitro kinase activity of FGF1-R in an ELISA assay.
# Corning 96-well Elisa plates. • 2. SUMOL1 monoclonal anti-EGFR antibody (SUGEN, Inc.). • 3. PBS • 4. TBST Buffer • 5. Blocking Buffer: for 100 ml, mix 5.0 g Carnation Instant Non-fat Milk® with 100 ml of PBS. • 6. A431 cell lysate (SUGEN, Inc.). • 7. TBS Buffer: • 8.
# bring to 1 liter total volume with dH2O. • 9. […] This reagent should be made up immediately prior to use and kept on ice. • 10. 1.0 mM MnCl2. • 11. […] Prepare just prior to use, keep on ice. • 12. NUNC 96-well V bottom polypropylene plates. • 13. EDTA. • 14. Rabbit polyclonal anti-phosphotyrosine serum (SUGEN, Inc.). • 15. Goat anti-rabbit IgG peroxidase conjugate (Biosource Cat. No. ALI0404). • 16. ABTS. • 17. 30% Hydrogen peroxide. • 18. ABTS/H2O2 • 19. 0.2 M HCl. Procedure: • 1. Coat Corning 96 well ELISA plates with 0.5 μg SUMO1 in 100 μl PBS per well, store overnight at 4° C. • 2. Remove unbound SUMO1 from wells by inverting plate to remove liquid. Wash 1×with dH2O. Pat the plate on a paper towel to remove excess liquid. • 3. Add 150 μl of Blocking Buffer to each well. Incubate, with shaking, for 30 min. at room temperature. • 4. Wash plate 3×with deionized water, then once with TBST. Pat plate on a paper towel to remove excess liquid and bubbles. • 5. Dilute lysate in PBS (7 μg lysate/100 μl PBS). • 6. Add 100 μl of diluted lysate to each well. Shake at room temperature for 1 hr. • 7. Wash plates as in 4, above. • 8. Add 120 μl TBS to ELISA plate containing captured EGFR. • 9. […] Add 13.5 μl diluted test compound to ELISA plate. To control wells, add 13.5 μl TBS in 10% DMSO. • 11. Incubate, with shaking, for 30 minutes at room temperature. • 12. Add 15 μl phosphorylation mix to all wells except negative control well. Final well volume should be approximately 150 μl with 3 μM ATP/5 mM MnCl2 final concentration in each well. Incubate with shaking for 5 minutes. • 13. Stop reaction by adding 16.5 μl of EDTA solution while shaking. Shake for additional 1 min. • 14. Wash 4×with deionized water, 2×with TBST. • 15. Add 100 μl anti-phosphotyrosine (1:3000 dilution in TBST) per well. Incubate, with shaking, for 30-45 min. at room temperature. • 16. Wash as in 4, above. • 17. […] Incubate with shaking for 30 min. at room temperature. • 18. Wash as in 4, above. • 19. Add 100 μl of ABTS/H2O2 solution to each well. • 20. Incubate 5 to 10 minutes with shaking. Remove any bubbles. • 21. If necessary, stop reaction by adding 100 μl 0.2 M HCl per well. • 22.
# [5] = target: EGFR (Homo sapiens, UniProt P00533); test: cell EGF assay; type: cell-based
# Chain of EGFR (P00533 25-1210, species assumed): as the sequence (P00533 25-1210) above
# Method: Several of the assays described herein are performed in an ELISA (Enzyme-Linked Immunosorbent […]) format (Voller, et al, 1980, “Enzyme-Linked Immunosorbent Assay,” Manual of Clinical Immunology, 2d ed., Rose and Friedman, Am. Soc. Of Microbiology, Washington, D.C., pp. 359-371). The general procedure is as follows: a compound of Formula (I) is introduced to cells expressing the test kinase, either naturally or recombinantly, for a selected period of time after which, if the test kinase is a receptor, a ligand known to activate the receptor is added. The cells are lysed and the lysate is transferred to the wells of an ELISA plate previously coated with a specific antibody recognizing the substrate of the enzymatic phosphorylation reaction. Non-substrate components of the cell lysate are washed away and the amount of phosphorylation on the substrate is detected with an antibody specifically recognizing phosphotyrosine compared with control cells that were not contacted with a test compound.
# Specifically, the results shown indicate the concentration of a test compound needed to cause a 50% reduction of the activity of the target PTK. Bioassays which have been or can be used to evaluate compounds are described in detail below.
# [6] = target: T3, PDGFR-β (NIH 3T3 cell lysate) (Homo sapiens, UniProt P09619); test: PDGFR bioassay, ELISA; type: biochemical; conditions: read-out: bio PDGF IC50
# T3 construct: host or cells: NIH 3T3
# T3 sequence (P09619 33-1106): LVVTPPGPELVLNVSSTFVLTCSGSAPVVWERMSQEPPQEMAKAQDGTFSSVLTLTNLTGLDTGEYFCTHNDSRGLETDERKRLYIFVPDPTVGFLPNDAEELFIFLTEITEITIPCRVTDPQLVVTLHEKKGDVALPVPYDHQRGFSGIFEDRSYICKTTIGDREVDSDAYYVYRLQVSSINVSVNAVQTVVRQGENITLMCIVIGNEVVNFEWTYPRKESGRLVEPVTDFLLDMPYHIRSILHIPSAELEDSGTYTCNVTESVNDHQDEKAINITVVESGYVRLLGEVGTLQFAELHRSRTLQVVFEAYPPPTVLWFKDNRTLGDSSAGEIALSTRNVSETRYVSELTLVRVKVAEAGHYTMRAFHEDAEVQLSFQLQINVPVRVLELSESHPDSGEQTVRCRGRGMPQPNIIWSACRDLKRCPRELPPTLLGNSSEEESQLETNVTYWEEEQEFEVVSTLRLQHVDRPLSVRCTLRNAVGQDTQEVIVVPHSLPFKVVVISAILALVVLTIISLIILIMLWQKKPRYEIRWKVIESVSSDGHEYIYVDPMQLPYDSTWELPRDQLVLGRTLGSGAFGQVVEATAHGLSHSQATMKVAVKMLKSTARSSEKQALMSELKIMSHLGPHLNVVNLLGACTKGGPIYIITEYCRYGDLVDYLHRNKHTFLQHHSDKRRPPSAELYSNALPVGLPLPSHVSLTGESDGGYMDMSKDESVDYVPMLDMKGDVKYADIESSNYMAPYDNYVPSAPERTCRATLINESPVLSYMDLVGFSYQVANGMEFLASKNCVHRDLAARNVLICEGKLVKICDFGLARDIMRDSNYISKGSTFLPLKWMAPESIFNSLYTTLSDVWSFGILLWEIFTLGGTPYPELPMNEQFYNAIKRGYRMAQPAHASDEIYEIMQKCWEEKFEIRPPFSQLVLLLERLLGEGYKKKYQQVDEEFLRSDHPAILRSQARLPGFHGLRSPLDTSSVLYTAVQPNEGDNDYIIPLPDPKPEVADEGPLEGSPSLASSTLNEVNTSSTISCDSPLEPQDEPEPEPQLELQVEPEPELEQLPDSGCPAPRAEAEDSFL
# Method: Corning 96-well Elisa plates • 2. 28D4C10 monoclonal anti-PDGFR antibody (SUGEN, Inc.). • 3. PBS. • 4. TBST Buffer. • 5. Blocking Buffer (same as for EGFR bioassay). • 6. PDGFR-β expressing NIH 3T3 cell lysate (SUGEN, Inc.). • 7. TBS Buffer. • 8. TBS+10% DMSO. • 9. ATP. • 10. MnCl2. • 11. Kinase buffer phosphorylation mix: for 10 ml, mix 250 μl 1M TRIS, 200 μl 5M NaCl, 100 μl 1M MnCl2 and 50 μl 100 mM Triton X-100 in enough dH2O to make 10 ml. • 12. NUNC 96-well V bottom polypropylene plates. • 13. EDTA. • 14. Rabbit polyclonal anti-phosphotyrosine serum (SUGEN, Inc.). • 15. Goat anti-rabbit IgG peroxidase conjugate (Biosource Cat. No. ALI0404). • 16. ABTS. • 17. Hydrogen peroxide, 30% solution. • 18. ABTS/H2O2. • 19. 0.2 M HCl. Procedure: • 1. Coat Corning 96 well ELISA plates with 0.5 μg 28D4C10 in 100 μl PBS per well, store overnight at 4° C. • 2. Remove unbound 28D4C10 from wells by inverting plate to remove liquid. • Wash 1×with dH2O. Pat the plate on a paper towel to remove excess liquid. • 3. Add 150 μl of Blocking Buffer to each well. Incubate for 30 min. at room temperature with shaking. • 4. Wash plate 3×with deionized water, then once with TBST. Pat plate on a paper towel to remove excess liquid and bubbles. • 5. Dilute lysate in HNTG (10 μg lysate/100 μl HNTG). • 6. Add 100 μl of diluted lysate to each well. Shake at room temperature for 60 min. • 7. Wash plates as described in Step 4. • 8. Add 80 μl working kinase buffer mix to ELISA plate containing captured PDGFR. • 9. […] Add 10 μl diluted test compound to ELISA plate. To control wells, add 10 μl TBS+10% DMSO. Incubate with shaking for 30 minutes at room temperature. • 11. Add 10 μl ATP directly to all wells except negative control well (final well volume should be approximately 100 μl with 20 μM ATP in each well.) Incubate 30 minutes with shaking. • 12. Stop reaction by adding 10 μl of EDTA solution to each well. • 13. Wash 4×with deionized water, twice with TBST. • 14. Add 100 μl anti-phosphotyrosine (1:3000 dilution in TBST) per well. Incubate with shaking for 30-45 min. at room temperature. • 15. Wash as in Step 4. • 16. […] Incubate with shaking for 30 min. at room temperature. • 17. Wash as in Step 4. • 18. Add 100 μl of ABTS/H2O2 solution to each well. • 19. Incubate 10 to 30 minutes with shaking. Remove any bubbles. • 20. If necessary stop reaction with the addition of 100 μl 0.2 M HCl per well. • 21.
# [7] = system: HUVECs; test: VEGF-mediated HUVEC survival (PARP cleavage); type: cell-based, human; conditions: PARP cleavage as readout for apoptosis
# Excerpt: In these experiments, cleavage of the caspase 3 substrate poly-ADP-ribosyl polymerase (PARP) was used as a readout for apoptosis.
# [8] = system: NCI-H460 tumors; test: NCI-H460 subcutaneous xenograft
# [9] = system: B16-F1 cells; test: B16-F1 mouse melanoma lung colonization model; type: in vivo, athymic mice; conditions: 80 mg/kg/day oral for 24 days; P <0.001
# Excerpt: In addition to supporting the sustained growth of solid primary tumors, angiogenesis is also an essential component supporting the development of disseminated disease due to metastasis from the primary tumor. […] In this model, B16-F1 cells inoculated intravenously via the tail vein of athymic mice colonize the lungs and form tumors. […] .
# Briefly, the results shown in Table 8 were obtained using athymic mice that had been inoculated with B16-F1 tumor cells (5×10^5 cells/mouse) via the tail vein. […] . At the end of the treatment period, the mice were sacrificed and their lungs removed and weighed. […] .
# [10] = target: T4, c-kit (Homo sapiens, UniProt P10721); test: SCF-stimulated c-kit phosphorylation in AML blasts of patients; type: cell-based; conditions: AML blasts from peripheral blood of patients
# T4 construct: was determined using MO7E cells that express this receptor; endogenous in cells; host or cells: MO7E
# T4 sequence (P10721 26-976): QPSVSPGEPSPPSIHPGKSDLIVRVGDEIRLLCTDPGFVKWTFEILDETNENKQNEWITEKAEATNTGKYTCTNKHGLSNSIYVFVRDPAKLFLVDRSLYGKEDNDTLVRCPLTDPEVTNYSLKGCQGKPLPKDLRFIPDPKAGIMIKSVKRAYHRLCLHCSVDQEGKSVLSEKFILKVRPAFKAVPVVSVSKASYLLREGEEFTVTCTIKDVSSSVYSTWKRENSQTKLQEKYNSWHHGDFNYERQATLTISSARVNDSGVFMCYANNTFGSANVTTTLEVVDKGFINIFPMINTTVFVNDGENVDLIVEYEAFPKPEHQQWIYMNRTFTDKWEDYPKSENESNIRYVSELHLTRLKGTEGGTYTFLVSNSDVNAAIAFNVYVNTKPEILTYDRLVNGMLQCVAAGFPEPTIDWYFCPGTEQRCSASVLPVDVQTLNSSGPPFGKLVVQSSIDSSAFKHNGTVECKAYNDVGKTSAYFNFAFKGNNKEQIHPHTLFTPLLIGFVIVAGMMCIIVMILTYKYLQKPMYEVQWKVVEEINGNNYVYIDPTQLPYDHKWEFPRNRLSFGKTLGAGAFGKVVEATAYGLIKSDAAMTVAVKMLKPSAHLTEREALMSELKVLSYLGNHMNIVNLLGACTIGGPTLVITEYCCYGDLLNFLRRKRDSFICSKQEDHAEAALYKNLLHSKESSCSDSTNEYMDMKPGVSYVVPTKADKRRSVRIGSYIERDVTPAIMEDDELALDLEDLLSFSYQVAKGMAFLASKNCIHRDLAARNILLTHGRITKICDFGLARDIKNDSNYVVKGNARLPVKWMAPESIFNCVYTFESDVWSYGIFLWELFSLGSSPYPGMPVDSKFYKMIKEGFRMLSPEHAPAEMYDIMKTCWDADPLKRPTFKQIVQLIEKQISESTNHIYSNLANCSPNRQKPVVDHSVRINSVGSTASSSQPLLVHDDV
# [11] = system: SF763T tumors; test: SF763T subcutaneous xenograft; type: in vivo, athymic mice
# [12] = system: NCI-H460 cells; test: cells; conditions: Homo sapiens
# [13] = system: HT29 cells; test: cells; conditions: Homo sapiens, HT-29
# [14] = system: Colo205 tumors; test: Colo205 subcutaneous xenograft
# [15] = system: A549 cells; test: cells; conditions: Homo sapiens
# [16] = system: SF767T cells; test: cells; conditions: Homo sapiens
# [17] = system: A431 tumors
# [18] = system: HT-29 human colon cancer cells; test: HT-29 Model; type: in vivo, nude mice; conditions: HT-29 assay A
compound,measurement,setting,value
Cc1ccc(-c2cc(C(F)(F)F)nn2-c2ccc(S(N)(=O)=O)cc2)cc1 [Celecoxib],tumor Volume,"[1]; 10 ppm in the diet from day 10, day 14",0.124 mL
same,tumor Volume,"[1]; 10 ppm in the diet from day 10, day 22",0.25 mL
same,tumor Volume,"[1]; 10 ppm in the diet from day 10, day 28",0.36 mL
same,tumor Volume,"[1]; 10 ppm in the diet from day 10, day 35",0.57 mL
same,tumor Volume,"[1]; 10 ppm in the diet from day 10, day 42",0.89 mL
same,tumor Volume,"[1]; 10 ppm in the diet from day 10, day 50",1.49 mL
same,tumor Volume,"[1]; 40 ppm in the diet from day 10, day 14",0.125 mL
same,tumor Volume,"[1]; 40 ppm in the diet from day 10, day 22",0.19 mL
same,tumor Volume,"[1]; 40 ppm in the diet from day 10, day 28",0.27 mL
same,tumor Volume,"[1]; 40 ppm in the diet from day 10, day 35",0.4 mL
same,tumor Volume,"[1]; 40 ppm in the diet from day 10, day 42",0.68 mL
same,tumor Volume,"[1]; 40 ppm in the diet from day 10, day 50",1.04 mL
same,tumor Volume,"[1]; 160 ppm in the diet from day 10, day 14",0.120 mL
same,tumor Volume,"[1]; 160 ppm in the diet from day 10, day 22",0.14 mL
same,tumor Volume,"[1]; 160 ppm in the diet from day 10, day 28",0.21 mL
same,tumor Volume,"[1]; 160 ppm in the diet from day 10, day 35",0.3 mL
same,tumor Volume,"[1]; 160 ppm in the diet from day 10, day 42",0.49 mL
same,tumor Volume,"[1]; 160 ppm in the diet from day 10, day 50",0.8 mL
same,effect in combination with a cytotoxic agent (cyclophosphamide),"[1]; celecoxib in the diet, cytoxin i.p. 50 mg/kg on days 5, 7 and 9",positive benefit
same,effect on lung metastasis,[2]; 160 ppm in the diet,did not affect
same,reduction of surface metastasis,[2]; 480-3200 ppm in the diet,more than 50%
same,size of the metastasic lesions in the lung,[2]; histopathological analysis,dose-dependently reduced
"Cc1[nH]c(/C=C2\C(=O)Nc3ccc(-c4ccccc4)cc32)c(C)c1C(=O)NCCCn1ccnc1 [Example 58, 2,4-Dimethyl-5-(2-oxo-5-phenyl-1,2-dihydroindol-3-ylidenemethyl)-1H-pyrrole-3-carboxylic Acid (3-imidazol-1-ylpropyl)amide]",IC50,[3],> 100 µM
same,IC50,[4],> 100 µM
same,IC50,[5],> 100 µM
"CCN(CC)CCNC(=O)c1c(C)[nH]c(/C=C2\C(=O)Nc3cc(-c4cccnc4)ccc32)c1C [Example 63, 2,4-Dimethyl-5-(2-oxo-6-pyridin-3-yl-1,2-dihydroindol-3-ylidenemethyl)-1H-pyrrole-3-carboxylic Acid (2-diethylaminoethyl)amide]",IC50,[6],< 0.78 µM
same,IC50,[3],> 100 µM
same,IC50,[5],> 100 µM
"Cc1cc(C)c(/C=C2\C(=O)N(CN3CCN(C)CC3)c3ccccc32)[nH]1 [Example 205, (3Z)-3-[(3,5-dimethyl-1H-pyrrol-2-yl)-methylidene]-1-[1-(4-methylpiperazinyl)methyl]-dihydro-2H-indol-2-one]",melting point,,160 to 164 °C
"CCN(CC)CCNC(=O)c1c(C)[nH]c(/C=C2\C(=O)Nc3cc(-c4cc(Cl)cc(Cl)c4)ccc32)c1C [Example 62, 5-[6-(3,5-Dichlorophenyl)-2-oxo-1,2-dihydroindol-3-ylidenemethyl]-2,4-dimethyl-1H-pyrrole-3-carboxylic Acid (2-diethylaminoethyl)amide]",IC50,[3],> 100 µM
same,IC50,[4],> 100 µM
same,IC50,[5],> 100 µM
CCN(CC)CCNC(=O)c1c(C)[nH]c(/C=C2\C(=O)Nc3ccc(F)cc32)c1C [Compound 80],effect on VEGF-mediated HUVEC survival,[7],inhibited VEGF-mediated HUVEC survival in a dose-dependent manner
same,tumor response to treatment,[8]; 80 mg/kg/day oral,arrested or greatly slowed
same,% Inhibition,"[8]; initial tumor volume 300 mm^3, 80 mg/kg once daily oral, day 54, P 0.003",61 (54) %
same,% Inhibition (lung weight),[9],50%
same,SCF-stimulated c-kit phosphorylation,[10],inhibited
same,tumor response to treatment,[11]; 80 mg/kg/day oral,arrested or greatly slowed
same,% Inhibition,"[11]; initial tumor volume 550 mm^3, 80 mg/kg once daily oral, day 30, P 0.001",53 (30) %
same,PDGFRβ tyrosine phosphorylation in established tumors,[11]; oral administration,strongly inhibited
same,levels of phosphorylated (activated) phospholipase C gamma (PLC-γ) in tumors,[11]; oral administration,reduced
same,IC50,[12],8.9 µM
same,IC50,[13],10 µM
same,% Inhibition,"[14]; 40 mg/kg daily oral, tumors 400 mm^3 at start, P 0.028",84%
same,% Inhibition,"[14]; 40 mg/kg twice weekly oral, tumors 400 mm^3 at start, NS",36%
same,% Inhibition,"[14]; 80 mg/kg daily oral, tumors 400 mm^3 at start, P 0.039",91%
same,% Inhibition,"[14]; 80 mg/kg once weekly oral, tumors 400 mm^3 at start, NS",0%
same,% Inhibition,"[14]; 80 mg/kg twice weekly oral, tumors 400 mm^3 at start, NS",19%
same,tumor response to treatment,[14]; 80 mg/kg/day oral,regressed
same,% Inhibition,"[14]; 160 mg/kg once weekly oral, tumors 400 mm^3 at start, NS",17%
same,% Inhibition,"[14]; 160 mg/kg twice weekly oral, tumors 400 mm^3 at start, P 0.085",52%
same,% Inhibition,"[14]; initial tumor volume 370 mm^3, 80 mg/kg once daily oral, day 54, P 0.028",77 (54) %
same,IC50,[15],9.5 µM
same,IC50,[16],7.9 µM
same,tumor response to treatment,[17]; 80 mg/kg/day oral,regressed
same,efficacy against established A431 tumors versus 80 mg/kg/day dose,"[17]; 160 mg/kg/day, preliminary experiments",not more efficacious
same,complete regression of the tumors,"[17]; initial 100 mm^3, 80 mg/kg/day for 21 days",six of the eight animals
same,% Inhibition of tumor growth,"[17]; initial tumor volume 100 mm^3, 10 mg/kg/day oral, day 40, P 0.059",61 (40) %
same,% Inhibition of tumor growth,"[17]; initial tumor volume 100 mm^3, 40 mg/kg/day oral, day 40, P 0.015",75 (40) %
same,% Inhibition of tumor growth,"[17]; initial tumor volume 100 mm^3, 80 mg/kg/day oral, day 40, P 0.002",93 (40) %
same,% Inhibition of tumor growth,"[17]; initial tumor volume 400 mm^3, 20 mg/kg/day oral, day 36, P 0.130",51 (36) %
same,% Inhibition of tumor growth,"[17]; initial tumor volume 400 mm^3, 40 mg/kg/day oral, day 36, P 0.003",74% and 74 (36) %
same,% Inhibition of tumor growth,"[17]; initial tumor volume 400 mm^3, 80 mg/kg/day oral, day 36, P 0.001",84% and 84 (36) %
same,tumor regrowth after end of treatment,[17]; the six animals with complete regression,did not regrow during a 110-day observation period
same,response of regrown tumors to a second round of treatment,[17]; two animals with tumors regrown to 2000-3000 mm^3,regressed
"NS(=O)(=O)c1ccc(-n2nc(C(F)(F)F)cc2-c2ccc(Cl)cc2)cc1 [SC-58236, 4-[5-(4-chorophenyl)-3-(trifluoromethyl)-1H-pyrazole-1-yl]benzenesulfonamide]",reduction of tumor volume,[1]; HT-29 assay A,89%
same,formation of lung metastasis,[18],completely inhibited
"Cc1cc(C)c(/C=C2\C(=O)N(CN3CCCC3)c3ccccc32)[nH]1 [Example 206, (3Z)-3-[(3,5-dimethyl-1H-pyrrol-2-yl)-methylidene]-1-(1-pyrrolidinylmethyl)-1,3-dihydro-2H-indol-2-one]",melting point,,129 to 132 °C
COc1ccc2c(c1)c(CC(=O)O)c(C)n2C(=O)c1ccc(Cl)cc1 [indomethacin],inhibition of tumor formation,"[1]; 2 mg/kg/day in the drinking water, near the maximum tolerated dose",77%
same,formation of lung metastasis,[18],ineffective
